Source: US6855872B2 (priority 1997, dated 2005)

What was measured:
[1] = test system: protoplasts of the genotype Rpl3:c258 (C4 lines); format: cell-based, Nicotiana tabacum
[2] = test system: protoplasts from wild-type tobacco plants; format: cell-based, Nicotiana tabacum
[3] = test system: protoplasts from transgenic plants with the rice Rpl3 gene (C3 lines); format: cell-based, Nicotiana tabacum
[4] = test system: wild type non-transformed N. debneyi cell suspension (N.d.wt); format: cell-based
[5] = test system: leaf explants of pCAPRL3 plants; format: cell-based
[6] = test system: maize embryogenic cultures (A188xB73) transformed with pActRPL3; format: cell-based
[7] = test system: mature maize embryos; details: cited from earlier work
[8] = test system: wheat anther-derived callus tissue; details: cited from earlier work
[9] = test system: cells of transgenic line expressing the rice Rpl3c:258 (N.dpCARPLC4); format: cell-based, N. debneyi
[10] = test system: leaf explants from pCARPLC4 plants; format: cell-based
[11] = test system: leaf explants of wild-type plants; format: cell-based
[12] = test system: cell suspensions of pCARPL3 plants (N.d.pCARPL3); format: cell-based, N. debneyi
[13] = test system: maize embryogenic cultures (A188xB73) transformed with pActRPLC4; format: cell-based

SMILES: CC1=C[C@H]2O[C@@H]3[C@H](O)C[C@](C)([C@@]2(CO)[C@H](O)C1=O)[C@]31CO1 [DON, deoxynivalenol]
- micro colony formation from protoplasts [1]: capable of transfer to regeneration medium
- viability of protoplasts [1]: not significantly affected
- susceptibility of wild-type plants (protoplasts) to DON [2]: susceptible
- micro colony formation from protoplasts [3]: did not often develop into calli
- weight gain of cells after 20 days in culture [4]: inhibited
- formation of callus and shoots on leaf explants [5]: inhibiting the formation of callus and shoots
- callus growth, % of the control [6]: 15%
- DON concentration sufficient to significantly inhibit growth [7]: 10 µg/mL
- growth of wheat anther-derived callus tissue [8]: reduces growth
- impact on packed cell volume or cell fresh weight gain [9]: less serious impact
- weight gain of cells after 20 days in culture [9]: not inhibited as much
- shoot regeneration on leaf explants [10]: capable of shoot regeneration
- formation of callus and shoots on leaf explants [11]: inhibiting the formation of callus and shoots
- packed cell volume and fresh weight gain of cell suspensions [12]: sufficient to inhibit
- weight gain of cells after 20 days in culture [12]: inhibited
- DON required to reduce growth to 15% of control values [13]: 50 µg/mL
- callus growth, % of the control [13]: 63%
- increase in tolerance to DON by the RPLC4 callus [13]: 10 fold
